According to US8637526B2, “Pyrazolopyrimidine JAK inhibitor compounds and methods” (Genentech, Inc., priority 2008, dated 2014):

How the values were obtained:
human JAK1 kinase domain = human JAK1 kinase domain (Homo sapiens (Human), UniProt P23458); test: JAK1 Inhibition Assay Protocol (Caliper LabChip peptide phosphorylation); format: biochemical; settings: enzymatic activity, 25 uM ATP
Source text: The catalytically active kinase domain of human JAK1, JAK2, JAK3 or TYK2 was purified from extracts of SF9 insect cells infected with a recombinant baculovirus expression vector encoding the human JAK1, JAK2, JAK3 or TYK2 kinase domains (JAK1 amino acid residues N852-D1154 according to the numbering of GenBank sequence accession number P23458, JAK2 amino acid residues D812-G1132 according to the numbering of GenBank sequence accession number NP_004963.1; JAK3 amino acid residues S783-S1124 according to the numbering of GenBank sequence accession number P52333, and TYK2 amino acid residues N873-C1187 according to the numbering of GenBank sequence accession number P29597). The activity of the JAK1, JAK2, JAK3 or TYK2 kinase domains can be measured by a number of direct and indirect methods, including quantification of phosphorylation of peptide substrates derived from the human JAK3 protein (Saltzman et al., Biochem. Biophys. Res. Commun. 246:627-633 (2004)). The activity of the JAK1, JAK2, JAK3 or TYK2 kinase domains was measured in vitro by monitoring phosphorylation of JAK3 derived peptides using the Caliper LabChip technology.
(§1) The activity of the isolated JAK1 or TYK2 kinase domain was measured by monitoring phosphorylation of a peptide derived from JAK3 ([…] fluorescently labeled on the N-terminus with 5-carboxyfluorescein using the Caliper LabChip technology (Caliper Life Sciences, Hopkinton, Mass.). […] Reactions were incubated at 22° C. in 384-well polypropylene microtiter plates for 30 minutes and then stopped by addition of 25 uL of an EDTA containing solution (100 mM Hepes pH 7.2, 0.015% Brij-35, 150 mM EDTA), resulting in a final EDTA concentration of 50 mM. After termination of the kinase reaction, the proportion of phosphorylated product was determined as a fraction of total peptide substrate using the Caliper LabChip 3000 according to the manufacturer's specifications. Ki values were then determined using the Morrison tight binding model (Morrison, J. F., Biochim. Biophys. Acta. 185:269-296 (1969); William, J. W. and Morrison, J. F., Meth. Enzymol., 63:437-467 (1979)).

human JAK3 kinase domain = human JAK3 kinase domain (Homo sapiens (Human), UniProt P52333); test: biochemical; format: biochemical; settings: enzymatic activity, 5 uM ATP; read-out: JAK3 Ki
Description: The activity of the JAK1, JAK2, JAK3 or TYK2 kinase domains was measured in vitro by monitoring phosphorylation of JAK3 derived peptides using the Caliper LabChip technology.
as §1, with “JAK3” for “JAK1 or TYK2”, “specifications.” for “specifications. Ki values were then determined using the Morrison tight binding model (Morrison, J. F., Biochim. Biophys. Acta. 185:269-296 (1969); William, J. W. and Morrison, J. F., Meth. Enzymol., 63:437-467 (1979)).”

NK92 cells = test: IL-12-stimulated STAT4 phosphorylation in NK92 cells (TYK2-dependent signaling, MSD); format: cell-based; settings: NK92, 1 h, read-out: IL12-pSTAT4 NK92 EC50
Description: The activities of compounds were determined in cell-based assays that are designed to measure TYK2-dependent signaling. Compounds were serially diluted in DMSO and incubated with NK92 cells (American Type Culture Collection (ATCC); Manassas, Va.) in 96-well microtiter plates in RPMI medium at a final cell density of 100,000 cells per well and a final DMSO concentration of 0.57%. Human recombinant IL-12 (R&D systems; Minneapolis, Minn.) was then added at a final concentration of 10 ng/mL to the microtiter plates containing the NK92 cells and compound and the plates were incubated for 1 hr at 37° C. Compound-mediated effects on STAT4 phosphorylation were then measured in the lysates of incubated cells using the Meso Scale Discovery (MSD) technology (Gaithersburg, Md.) according to the manufacturer's protocol and EC50 values were determined

TF-1 cells [1] = test: IL-6-stimulated STAT3 phosphorylation in TF-1 cells (JAK1-dependent signaling, MSD); format: cell-based; settings: Homo sapiens, TF-1, 0.5 h, read-out: IL6-pSTAT3 TF1 EC50
Description: (§2) The activities of compounds were determined in cell-based assays that are designed to measure JAK1 or JAK2-dependent signaling. Compounds were serially diluted in DMSO and incubated with TF-1 cells (American Type Culture Collection (ATCC); Manassas, Va.) in 384-well microtiter plates in OptiMEM medium without phenol red, 1% Charcoal/Dextran stripped FBS, 0.1 mM NEAA, 1 mM sodium pyruvate (Invitrogen Corp.; Carlsbad, Calif.) at a final cell density of 100,000 cells per well and a final DMSO concentration of 0.2%. Human recombinant IL-6 (R&D systems; Minneapolis, Minn.) or EPO (Invitrogen Corp.; Carlsbad, Calif.) was then added at a final concentration of 30 ng/mL or 10 Units/mL, respectively, to the microtiter plates containing the TF-1 cells and compound and the plates were incubated for 30 min at 37° C. Compound-mediated effects on STAT3 or STATS phosphorylation were then measured in the lysates of cells incubated in the presence of IL-6 or EPO, respectively, using the Meso Scale Discovery (MSD) technology (Gaithersburg, Md.) according to the manufacturer's protocol and EC50 values were determined.

TF-1 cells [2] = test: EPO-stimulated STAT5 phosphorylation in TF-1 cells (JAK2-dependent signaling, MSD); format: cell-based; settings: Homo sapiens, TF-1, 0.5 h, read-out: EPO pSTAT5 TF1 EC50
Description: as §2

[3] = tested on: Set-2 cells, which express the JAK2V617F mutant protein; test: STAT5 phosphorylation in Set-2 cells (JAK2-dependent signaling, MSD); format: cell-based; settings: Homo sapiens, SET-2, 1 h, read-out: pSTAT5 SET2 EC50
Description: The activities of compounds were determined in cell-based assays that are designed to measure JAK2-dependent signaling or proliferation. Compounds were serially diluted in DMSO and incubated with Set-2 cells (German Collection of Microorganisms and Cell Cultures (DSMZ); Braunschweig, Germany), which express the JAK2V617F mutant protein, in 96-well microtiter plates for 1 hr at 37° C. in RPMI medium at a final cell density of 100,000 cells per well and a final DMSO concentration of 0.57%. Compound-mediated effects on STATS phosphorylation were then measured in the lysates of incubated cells using the Meso Scale Discovery (MSD) technology (Gaithersburg, Md.) according to the manufacturer's protocol and EC50 values were determined. Alternatively, serially diluted compounds were added to 384-well microtiter plates in RPMI medium with 10% fetal bovine serum (Invitrogen Corp.; Carlsbad, Calif.) at a final cell density of 2500 cells per well and a final DMSO concentration of 0.3% and incubated at 37° C. for 72 hours. Cell viability was then determined using the CellTiter-Glo® Luminescent Cell Viability Assay according to the manufacturer's protocol (Promega; Madison, Wis.) and EC50 values were determined.

human JAK1 kinase domain, sequence (P23458 852-1154): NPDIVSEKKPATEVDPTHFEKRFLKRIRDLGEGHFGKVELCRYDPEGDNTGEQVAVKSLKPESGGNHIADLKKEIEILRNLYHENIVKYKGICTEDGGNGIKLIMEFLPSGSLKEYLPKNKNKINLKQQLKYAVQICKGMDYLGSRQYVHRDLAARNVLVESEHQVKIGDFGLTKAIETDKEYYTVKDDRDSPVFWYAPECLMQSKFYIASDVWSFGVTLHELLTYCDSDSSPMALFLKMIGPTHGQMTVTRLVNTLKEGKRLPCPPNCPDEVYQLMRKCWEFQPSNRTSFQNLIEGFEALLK
human JAK3 kinase domain, sequence (P52333 783-1124): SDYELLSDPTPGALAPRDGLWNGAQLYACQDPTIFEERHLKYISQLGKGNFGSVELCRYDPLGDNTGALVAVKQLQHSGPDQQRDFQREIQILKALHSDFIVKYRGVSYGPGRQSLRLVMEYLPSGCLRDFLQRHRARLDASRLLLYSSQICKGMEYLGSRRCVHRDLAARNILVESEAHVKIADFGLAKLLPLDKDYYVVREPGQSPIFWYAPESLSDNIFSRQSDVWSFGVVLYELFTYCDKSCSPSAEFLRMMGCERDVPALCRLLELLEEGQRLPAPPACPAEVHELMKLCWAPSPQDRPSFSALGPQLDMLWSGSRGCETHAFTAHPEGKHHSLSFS

Row | Structure (SMILES) | Ki (human JAK1 kinase domain) [nM] | Ki (human JAK3 kinase domain) [nM] | EC50 (NK92 cells) [nM] | EC50 (TF-1 cells [1]) [nM] | EC50 (TF-1 cells [2]) [nM] | EC50 [3] [nM]
1 | Nc1ccn2ncc(C(=O)Nc3conc3-c3cccc(Cl)c3)c2n1 [Example 250, 5-Amino-pyrazolo[1,5-a]-pyrimidine-3-carboxylic acid [3-(3-chloro-phenyl)-isoxazol-4-yl]-amide] | 28.4 | 55.6 | 105 | 839 | 340 | 
2 | Cc1ccc(C)c(-c2nn(C)cc2NC(=O)c2cnn3ccc(N)nc23)c1 [Example 225, 5-amino-N-(3-(2,5-dimethylphenyl)-1-methyl-1H-pyrazol-4-yl)pyrazolo[1,5-a]pyrimidine-3-carboxamide] |  |  | 119 | 130 |  | 12.8
